Test results as given in US20090018111A1, “Novel Antimicrobial Medicament” (priority 2004, published 2009).
Like-named read-outs stand apart in the source and are kept apart here.

Key:
Experiment in all cases: Sensitivity test (agar dilution), clinical isolate
[1] = test system: B. cepacia 7438; format: cell-based, Burkholderia cepacia
Description: (§1) In addition, the antibacterial activities were tested against strains which are comparatively less sensitive to β-lactam compounds, namely clinically isolated 13 strains of Acinetobacter calcoaceticus and Acinetobacter lwoffi, clinically isolated 11 strains of Serratia marcescens, clinically isolated 12 strains of Burkholderia cepacia, and clinically isolated 15 strains of Pseudomonas aeruginosa.
(§2) According to the standard method of Japan Chemotherapeutic Society (Chemotherapy, vol. […], p 76-79 (1981)) the test was carried out using the agar dilution method. After dissolving test samples in distilled water, agar medium containing the test samples was prepared in such a manner that the final concentration became twice serial dilution by pouring serially diluted combination drug solution or a single drug solution into agar medium. As agar medium was used Mueller Hinton Agar medium (MHA). Then, each strain was cultivated over night at 37° C. in an incubator and suspended in buffered saline solution with gelatin (BSG) in the concentration of about 10^6 CFU/ml. The suspension (about 5 μl) containing test strains was inoculated to the medium containing the test samples by Micro Planter.
(§3) Each drug was weighed, and dissolved in distilled water to give a test sample. When the drugs are used in combination, two kinds of solution containing each drug were mixed so as to be various ratio of concentration to give a mixed solution. When the sample is subjected to sensitivity test, this mixed solution was diluted by twice serial dilution method.
(§4) Furthermore, when the drug is solely used, each test sample was used as it is, and diluted by twice serial dilution method from the maximum concentration to the minimum concentration.

[2] = test system: B. cepacia 14427; format: cell-based, Burkholderia cepacia
Description: as §1, §2, §3, §4

[3] = test system: Acinetobacter spp. Jan-99 (second line, r15); format: cell-based, Acinetobacter calcoaceticus and Acinetobacter lwoffi
Description: as §1, §2, §3, §4

[4] = test system: Acinetobacter spp. 1399-2; format: cell-based, Acinetobacter calcoaceticus and Acinetobacter lwoffi
Description: as §1, §2, §3, §4

[5] = test system: Acinetobacter spp. 256; format: cell-based, Acinetobacter calcoaceticus and Acinetobacter lwoffi
Description: as §1, §2, §3, §4

[6] = test system: Acinetobacter spp. Jan-54; format: cell-based, Acinetobacter calcoaceticus and Acinetobacter lwoffi
Description: as §1, §2, §3, §4

[7] = test system: Acinetobacter spp. 1195; format: cell-based, Acinetobacter calcoaceticus and Acinetobacter lwoffi
Description: as §1, §2, §3, §4

[8] = test system: Acinetobacter spp. 1398-2; format: cell-based, Acinetobacter calcoaceticus and Acinetobacter lwoffi
Description: as §1, §2, §3, §4

[9] = test system: Acinetobacter spp. 14712; format: cell-based, Acinetobacter calcoaceticus and Acinetobacter lwoffi
Description: as §1, §2, §3, §4

[10] = test system: Acinetobacter spp. 1198; format: cell-based, Acinetobacter calcoaceticus and Acinetobacter lwoffi
Description: as §1, §2, §3, §4

[11] = test system: Acinetobacter spp. Jan-99; format: cell-based, Acinetobacter calcoaceticus and Acinetobacter lwoffi
Description: as §1, §2, §3, §4

[12] = test system: Acinetobacter spp. 1338-2; format: cell-based, Acinetobacter calcoaceticus and Acinetobacter lwoffi
Description: as §1, §2, §3, §4

[13] = test system: Acinetobacter spp. 175; format: cell-based, Acinetobacter calcoaceticus and Acinetobacter lwoffi
Description: as §1, §2, §3, §4

[14] = test system: Acinetobacter spp. Jan-81; format: cell-based, Acinetobacter calcoaceticus and Acinetobacter lwoffi
Description: as §1, §2, §3, §4

[15] = test system: Acinetobacter spp. 227-1; format: cell-based, Acinetobacter calcoaceticus and Acinetobacter lwoffi
Description: as §1, §2, §3, §4

`C[C@@H](O)[C@H]1C(=O)N2C(C(=O)O)=C(S[C@@H]3CN[C@H](C(=O)N(C)C)C3)[C@H](C)[C@H]12` [MEPM, meropenem] gave an MIC ([1]; Burkholderia cepacia, 7438, Concomitant (ME:SM = 1:1)) of 2 µg/mL, an MIC ([1]; Burkholderia cepacia, 7438, Concomitant (ME:SM = 1:2)) of 1 µg/mL and an MIC ([1]; Burkholderia cepacia, 7438, Concomitant (ME:SM = 1:4)) of 2 µg/mL. The MIC ([1]; Burkholderia cepacia, 7438, Concomitant (ME:SM = 2:1)) was 2 µg/mL, the MIC ([1]; Burkholderia cepacia, 7438, alone) was 2 µg/mL and the MIC ([2]; Burkholderia cepacia, 14427, Concomitant (ME:SM = 1:1)) was 1 µg/mL. For the same compound, the MIC ([2]; Burkholderia cepacia, 14427, Concomitant (ME:SM = 1:2)) was 0.5 µg/mL, the MIC ([2]; Burkholderia cepacia, 14427, Concomitant (ME:SM = 1:4)) was 0.5 µg/mL and the MIC ([2]; Burkholderia cepacia, 14427, Concomitant (ME:SM = 2:1)) was 1 µg/mL. The MIC ([2]; Burkholderia cepacia, 14427, alone) was 1 µg/mL, the MIC [3] was 0.125 µg/mL and the MIC ([3]; Concomitant (ME:SM = 1:1), read-out: MIC) was 0.5 µg/mL. For the same compound, the MIC ([3]; Concomitant (ME:SM = 1:2), read-out: MIC) was 0.25 µg/mL, the MIC ([3]; Concomitant (ME:SM = 2:1), read-out: MIC) was 0.5 µg/mL and the MIC ([3]; alone, read-out: MIC) was 0.5 µg/mL. It also gave an MIC ([4]; SPP.13992, Concomitant (ME:SM = 1:1)) of 0.5 µg/mL, an MIC ([4]; SPP.13992, Concomitant (ME:SM = 1:2)) of 0.5 µg/mL and an MIC ([4]; SPP.13992, Concomitant (ME:SM = 1:4)) of 0.25 µg/mL. For the same compound, the MIC ([4]; SPP.13992, Concomitant (ME:SM = 2:1)) was 0.5 µg/mL, the MIC ([4]; SPP.13992, alone) was 0.5 µg/mL and the MIC ([5]; SPP.256, Concomitant (ME:SM = 1:1)) was 0.5 µg/mL. For the same compound, the MIC ([5]; SPP.256, Concomitant (ME:SM = 1:2)) was 0.5 µg/mL, the MIC ([5]; SPP.256, Concomitant (ME:SM = 1:4)) was 0.25 µg/mL and the MIC ([5]; SPP.256, Concomitant (ME:SM = 2:1)) was 0.5 µg/mL. It also gave an MIC ([5]; SPP.256, alone) of 1 µg/mL, an MIC ([6]; Concomitant (ME:SM = 1:1)) of 0.5 µg/mL and an MIC ([6]; Concomitant (ME:SM = 1:2)) of 0.5 µg/mL. The MIC ([6]; Concomitant (ME:SM = 1:4)) was 0.25 µg/mL, the MIC ([6]; Concomitant (ME:SM = 2:1)) was 0.5 µg/mL and the MIC ([6]; alone) was 1 µg/mL. It also gave an MIC ([7]; SPP.1195) of 0.125 µg/mL, an MIC ([7]; SPP.1195, Concomitant (ME:SM = 1:1), read-out: MIC) of 0.25 µg/mL and an MIC ([7]; SPP.1195, Concomitant (ME:SM = 1:4), read-out: MIC) of 0.063 µg/mL. For the same compound, the MIC ([7]; SPP.1195, Concomitant (ME:SM = 2:1), read-out: MIC) was 0.25 µg/mL, the MIC ([7]; SPP.1195, alone, read-out: MIC) was 0.25 µg/mL and the MIC ([8]; SPP.13982, Concomitant (ME:SM = 1:1)) was 2 µg/mL. It also gave an MIC ([8]; SPP.13982, Concomitant (ME:SM = 1:2)) of 2 µg/mL, an MIC ([8]; SPP.13982, Concomitant (ME:SM = 1:4)) of 1 µg/mL and an MIC ([8]; SPP.13982, Concomitant (ME:SM = 2:1)) of 4 µg/mL. For the same compound, the MIC ([8]; SPP.13982, alone) was 32 µg/mL, the MIC ([9]; SPP.14712, Concomitant (ME:SM = 1:1)) was 0.5 µg/mL and the MIC ([9]; SPP.14712, Concomitant (ME:SM = 1:2)) was 0.5 µg/mL. For the same compound, the MIC ([9]; SPP.14712, Concomitant (ME:SM = 1:4)) was 0.25 µg/mL, the MIC ([9]; SPP.14712, Concomitant (ME:SM = 2:1)) was 0.5 µg/mL and the MIC ([9]; SPP.14712, alone) was 1 µg/mL. For the same compound, the MIC ([10]; SPP.1198) was 0.125 µg/mL, the MIC ([10]; SPP.1198, Concomitant (ME:SM = 1:1), read-out: MIC) was 0.25 µg/mL and the MIC ([10]; SPP.1198, Concomitant (ME:SM = 1:4), read-out: MIC) was 0.063 µg/mL. It also gave an MIC ([10]; SPP.1198, Concomitant (ME:SM = 2:1), read-out: MIC) of 0.25 µg/mL, an MIC ([10]; SPP.1198, alone, read-out: MIC) of 0.5 µg/mL and an MIC ([11]; Acinetobacter) of 0.125 µg/mL. It also gave an MIC ([11]; Acinetobacter, Concomitant (ME:SM = 1:1), read-out: MIC) of 0.25 µg/mL, an MIC ([11]; Acinetobacter, Concomitant (ME:SM = 2:1), read-out: MIC) of 0.25 µg/mL and an MIC ([11]; Acinetobacter, alone, read-out: MIC) of 0.25 µg/mL. It also gave an MIC ([11]; Concomitant (ME:SM = 1:2)) of 0.125 µg/mL, an MIC ([12]; SPP.13382) of 0.125 µg/mL and an MIC ([12]; SPP.13382, Concomitant (ME:SM = 1:1), read-out: MIC) of 0.5 µg/mL. For the same compound, the MIC ([12]; SPP.13382, Concomitant (ME:SM = 1:2), read-out: MIC) was 0.5 µg/mL, the MIC ([12]; SPP.13382, Concomitant (ME:SM = 2:1), read-out: MIC) was 0.5 µg/mL and the MIC ([12]; SPP.13382, alone, read-out: MIC) was 1 µg/mL. The MIC ([13]; Acinetobacter, SPP.175) was 0.125 µg/mL, the MIC ([13]; Acinetobacter, SPP.175, Concomitant (ME:SM = 1:2), read-out: MIC) was 0.063 µg/mL and the MIC ([13]; Acinetobacter, SPP.175, Concomitant (ME:SM = 1:4), read-out: MIC) was 0.063 µg/mL. The MIC ([13]; Concomitant (ME:SM = 1:1)) was 0.125 µg/mL, the MIC ([13]; Concomitant (ME:SM = 2:1)) was 0.125 µg/mL and the MIC ([14]; Concomitant (ME:SM = 1:1)) was 8 µg/mL. For the same compound, the MIC ([14]; Concomitant (ME:SM = 1:2)) was 2 µg/mL, the MIC ([14]; Concomitant (ME:SM = 1:4)) was 2 µg/mL and the MIC ([14]; Concomitant (ME:SM = 2:1)) was 4 µg/mL. For the same compound, the MIC ([14]; alone) was 4 µg/mL, the MIC ([15]; SPP.2271, Concomitant (ME:SM = 1:1)) was 0.5 µg/mL and the MIC ([15]; SPP.2271, Concomitant (ME:SM = 1:2)) was 0.5 µg/mL. For the same compound, the MIC ([15]; SPP.2271, Concomitant (ME:SM = 1:4)) was 0.25 µg/mL, the MIC ([15]; SPP.2271, Concomitant (ME:SM = 2:1)) was 0.5 µg/mL and the MIC ([15]; SPP.2271, alone) was 1 µg/mL.
